Measured values from PMC6364417, “Kinase inhibitor library screening identifies synergistic drug combinations effective in sensitive and resistant melanoma cells” (Journal of Experimental & Clinical Cancer Research : CR, 2019).

Columns and labels:
Assay in all cases: Kinase inhibitor library screening, PrestoBlue cell viability, 1 or 10 μM, 72 h
[1] = system: IGR37-GP cells (Dabrafenib-resistant); details: for viability at 1 µM / viability at 10 µM: Homo sapiens, IGR-37, 72 h; for viability at 1 µM: read-out: cell viability, IGR37 GP, 1μΜ; for viability at 10 µM: read-out: cell viability, IGR37 GP, 10μΜ
Protocol: (§1) After 72 h of treatment, cell viability was assessed using the PrestoBlue Cell Viability Reagent (ThermoFisher Scientific). Measurements were performed with the CLARIOstar Monochromator microplate reader (BMG Labtech).
(§2) Kinase inhibitor library screening. […] Each cell line was treated in its sensitive form (parental), and also as 2 resistant derivatives, which were made resistant to either Vemurafenib (XP) or Dabrafenib (GP). Drugs were added at 2 different concentrations, 1 and 10 μM, for 72 h and cell viability was assessed using the PrestoBlue Cell Viability assay. Results are depicted as % viability compared to untreated cells. Each cell line was analyzed at least in duplicate. […] (XLSX 95 kb)

IGR37 cells (parental) = details: for viability at 1 µM / viability at 10 µM: Homo sapiens, IGR-37, 72 h; for viability at 1 µM: read-out: cell viability, IGR37 Parental, 1μΜ; for viability at 10 µM: read-out: cell viability, IGR37 Parental, 10μΜ
Protocol: as §1, §2

[2] = system: A375-XP cells (Vemurafenib-resistant); details: for viability at 1 µM / viability at 10 µM: Homo sapiens, A-375, 72 h; for viability at 1 µM: read-out: cell viability, A375 XP, 1μΜ; for viability at 10 µM: read-out: cell viability, A375 XP, 10μΜ
Protocol: as §1, §2

A375 cells (parental) = details: for viability at 1 µM / viability at 10 µM: Homo sapiens, A-375, 72 h; for viability at 1 µM: read-out: cell viability, A375 Parental, 1μΜ; for viability at 10 µM: read-out: cell viability, A375 Parental, 10μΜ
Protocol: as §1, §2

501Mel cells (parental) = details: 72 h; for viability at 1 µM / viability at 10 µM: Homo sapiens; for viability at 1 µM: read-out: cell viability, 501Mel Parental, 1μΜ; for viability at 10 µM: read-out: cell viability, 501Mel Parental, 10μΜ
Protocol: as §1, §2

[3] = system: 501Mel-XP cells (Vemurafenib-resistant); details: 72 h; for viability at 1 µM / viability at 10 µM: Homo sapiens; for viability at 1 µM: read-out: cell viability, 501Mel XP, 1μΜ; for viability at 10 µM: read-out: cell viability, 501Mel XP, 10μΜ
Protocol: as §1, §2

[4] = system: 501Mel-GP cells (Dabrafenib-resistant); details: 72 h; for viability at 1 µM / viability at 10 µM: Homo sapiens; for viability at 1 µM: read-out: cell viability, 501Mel GP, 1μΜ; for viability at 10 µM: read-out: cell viability, 501Mel GP, 10μΜ
Protocol: as §1, §2

[5] = system: A375-GP cells (Dabrafenib-resistant); details: for viability at 1 µM / viability at 10 µM: Homo sapiens, A-375, 72 h; for viability at 1 µM: read-out: cell viability, A375 GP, 1μΜ; for viability at 10 µM: read-out: cell viability, A375 GP, 10μΜ
Protocol: as §1, §2

[6] = system: IGR37-XP cells (Vemurafenib-resistant); details: for viability at 1 µM / viability at 10 µM: Homo sapiens, IGR-37, 72 h; for viability at 1 µM: read-out: cell viability, IGR37 XP, 1μΜ; for viability at 10 µM: read-out: cell viability, IGR37 XP, 10μΜ
Protocol: as §1, §2

Row | SMILES | viability at 1 µM [1] | viability at 10 µM [1] | viability at 1 µM (IGR37 cells (parental)) | viability at 10 µM (IGR37 cells (parental)) | viability at 1 µM [2] | viability at 10 µM [2] | viability at 1 µM (A375 cells (parental)) | viability at 10 µM (A375 cells (parental)) | viability at 1 µM (501Mel cells (parental)) | viability at 10 µM (501Mel cells (parental)) | viability at 1 µM [3] | viability at 10 µM [3] | viability at 1 µM [4] | viability at 10 µM [4] | viability at 1 µM [5] | viability at 10 µM [5] | viability at 1 µM [6] | viability at 10 µM [6] | further results
1 | Cc1cc(Nc2nc(N[C@@H](C)c3ccc(F)cc3)c(C#N)cc2F)[nH]n1 [AZ 960] | 87.2% | 73.9% | 83.9% | 90.7% | 61.3% | 46.1% | 48.9% | 40% | 49.1% | 65.1% | 39.4% | 60.4% | 34.2% | 66.8% | 44% | 37.8% | 81.1% | 39.7% | –
2 | CNC(=O)c1cccc(-c2ccc3c(N4CCOC[C@@H]4C)nc(N4CCOC[C@@H]4C)nc3n2)c1 [AZD2014] | – | – | – | – | – | – | – | – | – | – | – | – | – | – | – | – | – | – | Cell viability in kinase inhibitor library screening, IGR37 GP, 10μΜ ([1]; IGR37 GP, 10μΜ, 72 h): 28.2%; Cell viability in kinase inhibitor library screening, IGR37 GP, 1μΜ ([1]; IGR37 GP, 1μΜ, 72 h, in %): 63.5; Cell viability in kinase inhibitor library screening, IGR37 Parental, 10μΜ (IGR37 cells (parental); IGR37 Parental, 10μΜ, 72 h, in %): 12.3; Cell viability in kinase inhibitor library screening, A375 XP, 1μΜ ([2]; A375 XP, 1μΜ, 72 h): 29.1; Cell viability in kinase inhibitor library screening, A375 XP, 10μΜ ([2]; A375 XP, 10μΜ, 72 h): 19.4; Cell viability in kinase inhibitor library screening, A375 Parental, 10μΜ (A375 cells (parental); A375 Parental, 10μΜ, 72 h): 21.1; Cell viability in kinase inhibitor library screening, A375 Parental, 1μΜ (A375 cells (parental); A375 Parental, 1μΜ, 72 h): 34.9; Cell viability in kinase inhibitor library screening, 501Mel Parental, 1μΜ (501Mel cells (parental); 501Mel Parental, 1μΜ, in %): 39.4; Cell viability in kinase inhibitor library screening, 501Mel Parental, 10μΜ (501Mel cells (parental); 501Mel Parental, 10μΜ, in %): 8.5; Cell viability in kinase inhibitor library screening, 501Mel XP, 1μΜ ([3]; 501Mel XP, 1μΜ, in %): 21.8; Cell viability in kinase inhibitor library screening, 501Mel XP, 10μΜ ([3]; 501Mel XP, 10μΜ, in %): 3.5; Cell viability in kinase inhibitor library screening, 501Mel GP, 1μΜ ([4]; 501Mel GP, 1μΜ, in %): 28.3; Cell viability in kinase inhibitor library screening, 501Mel GP, 10μΜ ([4]; 501Mel GP, 10μΜ, in %): 9.6; Cell viability in kinase inhibitor library screening, A375 GP, 1μΜ ([5]; A375 GP, 1μΜ, 72 h): 33.7; Cell viability in kinase inhibitor library screening, A375 GP, 10μΜ ([5]; A375 GP, 10μΜ, 72 h): 19.6; Cell viability in kinase inhibitor library screening, IGR37 XP, 10μΜ ([6]; IGR37 XP, 10μΜ, 72 h): 9.4%; Cell viability in kinase inhibitor library screening, IGR37 XP, 1μΜ ([6]; IGR37 XP, 1μΜ, 72 h, in %): 49.7
3 | Cc1ncc(-c2ccnc(Nc3ccc(S(C)(=O)=O)cc3)n2)n1C(C)C [AZD5438] | – | – | – | – | – | – | – | – | – | – | – | – | – | – | – | – | – | – | cell viability (kinase inhibitor library screening) ([1]; IGR37 GP, 1μΜ, 72 h): 99.3%; cell viability (kinase inhibitor library screening) ([1]; IGR37 GP, 10μΜ, 72 h): 97.8%; cell viability (kinase inhibitor library screening) (IGR37 cells (parental); IGR37 Parental, 1μΜ, 72 h): 103.3%; cell viability (kinase inhibitor library screening) (IGR37 cells (parental); IGR37 Parental, 10μΜ, 72 h): 110.8%; cell viability (kinase inhibitor library screening) ([2]; A375 XP, 1μΜ, 72 h): 105.8%; cell viability (kinase inhibitor library screening) ([2]; A375 XP, 10μΜ, 72 h): 110.3%; cell viability (kinase inhibitor library screening) (A375 cells (parental); A375 Parental, 10μΜ, 72 h): 103.7%; cell viability (kinase inhibitor library screening) (A375 cells (parental); A375 Parental, 1μΜ, 72 h): 106.4%; cell viability (kinase inhibitor library screening) (501Mel cells (parental); 501Mel Parental, 1μΜ): 102.8%; cell viability (kinase inhibitor library screening) (501Mel cells (parental); 501Mel Parental, 10μΜ): 103.6%; cell viability (kinase inhibitor library screening) ([3]; 501Mel XP, 1μΜ): 99.0%; cell viability (kinase inhibitor library screening) ([3]; 501Mel XP, 10μΜ): 80.3%; cell viability (kinase inhibitor library screening) ([4]; 501Mel GP, 1μΜ): 106.0%; cell viability (kinase inhibitor library screening) ([4]; 501Mel GP, 10μΜ): 93.9%; cell viability (kinase inhibitor library screening) ([5]; A375 GP, 1μΜ, 72 h): 99.9%; cell viability (kinase inhibitor library screening) ([5]; A375 GP, 10μΜ, 72 h): 102.9%; cell viability (kinase inhibitor library screening) ([6]; IGR37 XP, 1μΜ, 72 h): 106.4%; cell viability (kinase inhibitor library screening) ([6]; IGR37 XP, 10μΜ, 72 h): 82.4%
4 | Cn1cnc2c(F)c(Nc3ccc(Br)cc3Cl)c(C(=O)NOCCO)cc21 [AZD6244 (Selumetinib)] | 92% | 62.7% | 40.2% | 36.6% | 42.3% | 15% | 21.3% | 18.6% | 61.6% | 60.6% | 81.2% | 58.1% | 96.9% | 73.6% | 29.4% | 17.8% | 83.3% | 42.2% | –
